The test system of data set [1] is TNF-α production from mouse intraperitoneal macrophages. Nature of the data set: IC50 for TNF-α production from mouse macrophages, LPS + IFN-γ, nucleic acid derivatives (Experiment 19). It counts as cell-based. To be noted: for IC50 / IC50 Concentration TNF-α: mouse macrophages, LPS and IFN-γ, 20 hours; for IC50: read-out: IC50 Concentration TNF-α; for inhibitory action on the production of inflammatory cytokines (in words): mouse intraperitoneal macrophages stimulated with LPS and IFN-γ. From the text: (§1) After completion of the culture, the supernatant in each well was collected and assayed for cytokines and prostaglandin E2 (called “PGE2”, hereinafter) with ELISA.

The subject of data set [2] is IL-6 production from mouse intraperitoneal macrophages. Nature of the data set: IC50 for IL-6 production from mouse macrophages, LPS + IFN-γ (Experiment 19). Format: cell-based. Particulars: for IC50 Concentration IL-6 / IC50: mouse macrophages, LPS and IFN-γ, 20 hours; for IC50: read-out: IC50 Concentration IL-6; for inhibition of the production of IL-6 (in words): mouse intraperitoneal macrophages stimulated with LPS and IFN-γ.
Description: as §1

In data set [3] the test system is IL-12 production from mouse intraperitoneal macrophages. Nature of the data set: IC50 for IL-12 production from mouse macrophages, LPS + IFN-γ (Experiment 19). It counts as cell-based. Particulars: mouse macrophages, LPS and IFN-γ, 20 hours; read-out: IC50 Concentration IL-12.
Description: as §1

Data set [4] concerns PGE2 production from mouse intraperitoneal macrophages. Nature of the data set: IC50 for PGE2 production from mouse macrophages, LPS + IFN-γ (Experiment 19). Format: cell-based. Particulars: mouse macrophages, LPS and IFN-γ, 20 hours; read-out: IC50 Concentration PGE2.
Description: as §1

Data set [5] deals with BALB/c mice. Nature of the data set: Acute toxicity test, intraperitoneal (Experiment 20). Particulars: BALB/c mice, intraperitoneal. The protocol: As a control, only PBS was intraperitoneally administered to 10 BALB/c mice (6-week-old, female, average weight of 20 g, commercialized by Charles River Laboratories Japan Inc., Tokyo, Japan) at a dose of 1 mL/head, followed by observing the course of the mice for 24 hours.

The test system of data set [6] is BALB/c mice. Nature of the data set: Safeness of injection preparations, i.v. once a day for seven days (Example 2). Format: in vivo. To be noted: BALB/c mice. How it is done: The safeness of the preparations prepared in the above was evaluated.

The structures appear in SMILES notation. Read-outs that look alike come from different tables or passages of the source. A value given as a limit tells only on which side of the number the result lay.

Turning to `Nc1nc2c([nH]c(=O)n2[C@H]2C[C@H](O)[C@@H](CO)O2)c(=O)[nH]1` [8-OH-deoxyguanine], the IC50 in data set [1] was over 200 µM. Also, the “IC50 Concentration IL-6” value in data set [2] is “Enhanced”.
As for `Nc1nc2c(nc(O)n2[C@@H]2O[C@H](CO)[C@@H](O)[C@H]2O)c(=O)[nH]1` [8-OH-guanosine], the IC50 in data set [1] is over 200 µM. Besides, the “IC50 Concentration IL-6” value in data set [2] is reported as “Enhanced”.
Regarding `CC1(C)[C@@H](O)CC[C@]2(C)[C@H]3C(=O)C=C4[C@@H]5C[C@@](C)(C(=O)O)CC[C@]5(C)CC[C@@]4(C)[C@]3(C)CC[C@@H]12` [18β-glycyrrhetinate], the IC50 in data set [1] is 50.2 µM; in data set [2], 87.3 µM; in data set [3] it was over 200 µM; in data set [4], over 200 µM.
As to `CNC(=O)[C@H]1O[C@@H](n2cnc3c(NCc4cccc(I)c4)ncnc32)[C@H](O)[C@@H]1O` [IB-MECA, 1-deoxy-1-[6-[[(3-iodophenyl-)methyl]amino]-9H-purin-9-yl]-N-methyl-β-D-ribofuranuronamide], the IC50 in data set [1] came to 0.4 µM; in data set [3] it was 4.5 µM. The “inhibition of the production of IL-6 (in words)” value in data set [2] is recorded as “no inhibition”. The “IC50 Concentration IL-6” value in data set [2] was “Not inhibited”.
Regarding `Nc1c2[nH]cnc2nc[n+]1[O-]` [adenine N1-oxide], the IC50 was 137 µM in data set [1] (Macrophage) and over 200 µM in data set [2] (Macrophage). Also, in data set [1], the “inhibitory action on the production of inflammatory cytokines (in words)” value (shortened to “inhibitory action on the production”) is recorded as “only a weak inhibitory action”.
Take `Nc1ncnc2nc[nH]c12` [adenine]: the IC50 in data set [1] (Macrophage) was 85.2 µM; in data set [2] (Macrophage), over 200 µM. Also, the “inhibitory action on the production” value in data set [1] was “only a weak inhibitory action”.
In the case of `Nc1ncnc2c1ncn2[C@@H]1O[C@H](COP(=O)(O)O)[C@@H](O)[C@H]1O` [adenosine 5′-monophosphate], the IC50 in data set [1] (Macrophage) came to 32.1 µM. Further, the “inhibitory action on the production” value in data set [1] is given as “only a weak inhibitory action”. In data set [2], the “IC50 Concentration IL-6” value is recorded as “Not inhibited”.
Turning to `Nc1c2ncn([C@@H]3O[C@H](COP(=O)(O)O)[C@@H](O)[C@H]3O)c2nc[n+]1[O-]` [adenosine N1-oxide 5′-monophosphate], the results for the IC50 in data set [1], in data set [2] and in data set [3] were 0.9 µM, 10.2 µM and over 200 µM, respectively. The “inhibition of the production of IL-6 (in words)” value in data set [2] was “strongly inhibited”. Further, in data set [5] (blood and urine at 24 hours), the “clinical laboratory test results that provide indices of renal and liver functions, versus control” value is reported as “no difference”. Also, the “change in appearance after administration” value in data set [5] (observed 24 hours) was “no change in appearance”. Also, in data set [6] (i.v. 0.3 mL/head once a day for seven days, followed two weeks), the “change in body weight and other appearance versus PBS” value is listed as “no significant change”. In addition, the “clinical laboratory test results that provide indices of renal and liver functions versus PBS” value in data set [6] (i.v. once a day for seven days, two weeks after initiating) was “no difference”.
For `CC1(C)[C@@H](O[C@H]2O[C@H](C(=O)O)[C@@H](O)[C@H](O)[C@H]2O[C@@H]2O[C@H](C(=O)O)[C@@H](O)[C@H](O)[C@H]2O)CC[C@]2(C)[C@H]3C(=O)C=C4[C@@H]5C[C@@](C)(C(=O)O)CC[C@]5(C)CC[C@@]4(C)[C@]3(C)CC[C@@H]12` [dipotassium glycyrrhizinate], the IC50 in data set [1], in data set [2], in data set [3] and in data set [4] was over 200 µM in each case.
As for `Nc1nc2nc[nH]c2c(=O)[nH]1` [guanine], the “IC50 Concentration TNF-α” value in data set [1] is “Not inhibited”. Besides, the “IC50 Concentration IL-6” value in data set [2] is “Not inhibited”.
Regarding `Nc1nc2c(ncn2[C@@H]2O[C@H](COP(=O)(O)O)[C@@H](O)[C@H]2O)c(=O)[nH]1` [guanosine 5′-monophosphate], in data set [1], the “IC50 Concentration TNF-α” value is recorded as “Not inhibited”. Also, in data set [2], the “IC50 Concentration IL-6” value was “Not inhibited”.
With `Nc1nc2c(ncn2[C@@H]2O[C@H](CO)[C@@H](O)[C@H]2O)c(=O)[nH]1` [guanosine], the “IC50 Concentration TNF-α” value in data set [1] is listed as “Not inhibited”. In addition, the “IC50 Concentration IL-6” value in data set [2] is on record as “Not inhibited”.

The values above are taken from patent US9757408B2 (Hayashibara Co., Ltd., priority 2010, dated 2017).
